Data set [1] concerns HBV. The experiment in a line: inhibitory effect on HBV replication in 2.2.15 cell culture. In kind it is cell-based. To be noted: for EC50: Hepatitis B virus, 216 h, read-out: ED50 (inhibitory effect on HBV replication); for SI (selectivity Index, IC50/ED50): cytotoxicity IC50 / anti-HBV ED50, 2.2.15 cell. The protocol: Test for identifying the anti HBV effect of the compound of the present invention was carried out according to a known assay method (see, Korba and Milman, Antiviral Res., 15, 217, 1991). The assay procedure is briefly described in the following.
2.2.15. cell was cultured and preserved in RPM 11640 culture medium containing 5% fetal bovine serum (FBS), 2 mM glutamine and 50 μg/ml gentamicin sulfate. Resistance to G418 of the cell culture and degree of Mycoplasma contamination were examined according to conventional methods.
Cells (1×10^4 /cm^2) were inoculated into a multi-well tissue culture plate, confluently cultured for 7 days, and then kept for 2 or 3 days in confluent condition to stabilize the HBV DNA level. Then, culture medium was replaced 24 hours before cells were exposed to test compound. During the treatment of 9 days, culture medium was replaced and then test compound was added to the fresh culture medium at intervals of 24 hours. Culture medium was collected immediately before the first introduction of test compound, and after 3, 6, 9 days, respectively, and stored at -70° C. before HBV DNA analysis. Then, cytolysis was carried out to analyze the intracellular HBV DNA.
To analyze the extracellular HBV DNA, 0.2 ml of culture medium was incubated in 1M NaOH/10×SSC (1×SSC=0.15M NaCl/0.015M sodium citrate, pH 7.2) for 20 minutes at 25° C. and then immediately applied to a nitrocellulose membrane presoaked in 20×SSC using a slot blot apparatus. The sample was washed twice with 0.5 ml of 1M Tris/2M NaCl (pH 7.2) and once with 0.5 ml of 20×SSC to neutralize, and then it was washed again with 2×SSC and heated at […] for one hour under vacuum. Generally, the cells which have been cultured and preserved in a dish having a diameter of 10 cm are dissolved in 6 ml of lysis buffer, and the […] DNA is prepared according to the method of Korba et al., 1991.
10 μg/lane of cellular DNA sample was digested with restriction enzyme Hind III. Then, the digested sample was applied to 1% agarose gel electrophoresis and transferred to a nitrocellulose membrane.
3.2 kb HBV DNA fragment obtained by EcoR I-digestion and purification was labeled with [^32 P]dCTP using nick translation method. This labeled fragment was used as a hybridization probe. Condition for hybridization and post-washing were controlled by referring to the method of Korba et al., 1991 and HBV nucleic acid content among test sample was determined by Ambis beta scanner. The relative radioactivity of ^32 P hybridized to the test sample was compared with that of ^32 P hybridized to the standard amount of HBV DNA which was applied to each nitrocellulose membrane filter (gel or slot blot). From the calibration curve, the amount of HBV DNA corresponding to the relative cpm value was calculated.
Since the content of intracellular and extracellular HBV DNA has some inherent variations, only inhibition greater than 3.5-fold in the case of HBV virion DNA or 3.0-fold in the case of HBV DNA replication intermediates form the average level of HBV DNA formed in the untreated cell were considered to be statistically significant (P<0.05) in the present experiment. The lever of HBV DNA integrated during each cellular DNA preparation (which remains constant per cell in the present experiment) was used to calculate the level of intracellular HBV DNA formed, thereby the technical variations inherent in the blot hybridization analysis can be eliminated. Typical values for extracellular HBV virion DNA in the untreated cells ranged from 50 to 150 pg/ml culture medium with an average value of about 75 pg/ml. Intracellular HBV DNA replication intermediates (RI) in the untreated cells ranged form 50 to 100 pg/μg cellular DNA with an average value of about 74 pg/μg. […]

Data set [2] is described as follows: cytotoxicity test, neutral red dye uptake method. In kind it is cell-based. To be noted: human, 2.2.15 cells, 2.2.15 cell culture, A510, read-out: IC50 (cytotoxicity). As to the method:
Cytotoxivity test was carried out in order to determine whether the antiviral effect of the compound according to the present invention is due to the general influence on cell growth or not. In the present experiment, neutral red dye uptake method was used. This is a standard method widely utilized for examining cell survival, by which the variety of relations between viruses such as HSV or HIV and host organism can be understood.
Cytotoxicity test was performed on a 96-well tissue culture plate. Cells were cultured and treated with test compounds in the same manner as Biological Example 1, and the experiments at 4-kind concentrations were repeated threetimes, respectively. Since the relative toxicity can be determined form the uptake level of neutral red dye, quantitative analysis was carried out using the absorbance of internalized dye at 510 nm (A510).

A further data set relates to liver cells. Kind of data set: liver protection effect in carbon tetrachloride / D-galactosamine model, serum ALT (GPT) or AST in rats, oral for 4 days. The data set is classed as in vivo. To be noted: 100 mg/kg, p.o. The protocol: The efficacy of compounds of formulas (I)a, (I)b, (I)c and (I)d was measured according to the method of carbon tetrachloride model [referred to: Philippe letteron et al., Biochemical Pharmacology, 39, 12, 2027~2034, 1990] and D-galactosamine model [referred to: Koji Hase et al., Biol. Pharm. Bull., 20, 4, 381~385, 1997].
Carbon tetrachloride and D-galactosamine are known as the compounds inducing the severe damage to liver cells, because carbon tetrachloride suppresses the biosysthesis of protein in the liver and induces the necrosis of liver cells, and D-galactosamine also induces the necrosis of liver cells by changing the structure of liver cell membranes.
In the present invention, the compounds of formulas (I)a, (I)b, (I)c and (I)d were orally administered to the rats as experimental animals for 4 days, and then the liver protection effect was examined by measuring the serum ALT or AST values in the experimental animals (referred to: Biol. Prarm. Bull., 20, 4, 38 1~385, 1997; Toxicology and Applied Pharmacology, 95, 1~11, 1988).
Following is calculation formula to evaluate liver protection properties of compounds of formulas (I)a, (I)b, (I)c and (I)d; [formula]
the control group means the group to which carbon tetrachloride or D-galactosamine is administered and the liver cells are impaired;
the normal group means the group to which normal solution is administered.
The liver protection effects of compounds of formulas (I)a, (I)b, (I)c and (I)d are shown to following Table 1 in comparison with known liver protection compound silimarin.

A short description of data set [3]: acute toxicity in ICR mouse. The data set is classed as in vivo. To be noted: mouse, in vivo, read-out: Lethal ratio (%). As to the method:
(§1) On the other hand, the acute toxicity of compounds of formulas (I)a, (I)b, (I)c and (I)d is measured using mouse according to the standard of drug toxicity test. The mouse is selected from the 4 weeks old ICR mouse and each dosage of 250 mg/kg, 500 mg/kg, 1,000 mg/kg and 2,000 mg/kg compounds of formulas (I)a, (I)b, (I)c and (I)d are administered after suspending the compounds in the corn oil.

For a further data set, the system named is ICR mouse. The experiment in a line: acute toxicity in ICR mouse. The data set is classed as in vivo. The protocol:
as §1

For data set [4] the following is noted: cited from earlier work; for in vivo activities: in words.
The test system of data set [5] is HBV. To be noted: Korean Patent Laid-open No. 94-1886; cited from earlier work.
[6] abbreviates: 2.2.15 cell culture, 9 days treatment.

Read-outs that look alike come from different tables or passages of the source.

In the case of `Nc1ccn([C@H]2CC[C@@H](CO)O2)c(=O)n1` [ddC, dideoxy cytidine, reference compound], in the data set with HBV [1], the EC50 is 15 µM and the “SI (selectivity Index, IC50/ED50)” value is given as over 2.0. Besides, the CC50 at 216 h in data set [2] is over 30 µM.

`COC(=O)C1=CO[C@@H]2O[C@H](OC)[C@@H]3CC[C@H]1[C@H]23` [Compound (I)b, (2S,2aR,4aS,7aR,7bS)-2-methoxy-5-methoxycarbonyl-2a,3,4,4a,7a,7b-hexa-hydro-2H-1,7-dioxacyclopent[c.d]indene]: the “Liver protection effect (GPT, %)” value in the data set on liver cells is on record as 57%. The EC50 in the data set on HBV [1] (setting [6]) stood at 40 µM. Also, the “SI (selectivity Index, IC50/ED50)” value in the data set on HBV [1] worked out at 3.0. For the same compound, the CC50 at 216 h in data set [2] was found to be 90 µM. The mortality in data set [3] (250 mg/kg), in data set [3] (500 mg/kg), in data set [3] (1000 mg/kg) and in data set [3] (2000 mg/kg) was 0% throughout. The “Number of dead animals/Number of administered animals” value with ICR mouse (250 mg/kg), in the data set with ICR mouse (500 mg/kg), with ICR mouse (1000 mg/kg) and in the data set with ICR mouse (2000 mg/kg) was 0/5 throughout.

For the compound `OCC1=C[C@@H](O)[C@@H]2C=CO[C@@H](O[C@@H]3O[C@H](CO)[C@@H](O)[C@H](O)[C@H]3O)[C@H]12` [aucubin], the in vivo activities result in data set [4] is “liver-protection, inhibition of biosynthesis of RNA and protein, detoxification as well as antiviral activity”. Besides, the HBV replication entry with HBV [5] is “inhibit the HBV replication”.

With `COC(=O)C1=CO[C@H](OCc2ccccc2)[C@H]2[C@@H]1CC1OC(C)(C)OC12CNC(=O)Nc1cccnc1` (stereo partly drawn) [Compound (I)d, methyl (1S,8S,12S)-2-[(3-pyridyl)ureido]methyl-4,4-dimethyl-3,5,11-trioxa-12-benzyloxy-tricyclo[6.4.0.0<2,6>]dodec-9-en-9-carboxylate], in the data set with liver cells, the “Liver protection effect (GPT, %)” value was found to be 74%. Also, the EC50 in the data set with HBV [1] (setting [6]) worked out at 20 µM. In addition, the “SI (selectivity Index, IC50/ED50)” value with HBV [1] is recorded as 2.5. In addition, in data set [2], the CC50 at 216 h is 70 µM. Also, the mortality in data set [3] (250 mg/kg), in data set [3] (500 mg/kg), in data set [3] (1000 mg/kg) and in data set [3] (2000 mg/kg) was 0% each time. Moreover, the “Number of dead animals/Number of administered animals” value in the data set on ICR mouse (250 mg/kg), in the data set on ICR mouse (500 mg/kg), in the data set with ICR mouse (1000 mg/kg) and with ICR mouse (2000 mg/kg) was 0/5 each time.

For `COC(=O)C1=CO[C@@H](OCc2ccccc2)[C@@H]2C(CN=[N+]=[N-])=CC[C@H]12` [Compound (I)a, methyl (7R,3aS,7aS)-1-azidomethyl-7-benzyloxy-3,7,3a,7a-tetrahydro-6-oxaindene-4-carboxylate], the “Liver protection effect (GPT, %)” value with liver cells is on record as 65%. Also, the EC50 with HBV [1] (setting [6]) is 80 µM. The “SI (selectivity Index, IC50/ED50)” value with HBV [1] came out at 4.5. Besides, the CC50 at 216 h in data set [2] amounted to 120 µM. Moreover, the mortality in data set [3] (250 mg/kg), in data set [3] (500 mg/kg), in data set [3] (1000 mg/kg) and in data set [3] (2000 mg/kg) was 0% throughout. The “Number of dead animals/Number of administered animals” value in the data set with ICR mouse (250 mg/kg), in the data set on ICR mouse (1000 mg/kg) and in the data set on ICR mouse (2000 mg/kg) was 0/5 each time.

As for `COC(=O)C1=CO[C@@H](OCc2ccccc2)[C@@H]2C(/C=N/OC(C)(C)C)=CC[C@H]12` [Compound (I)c, methyl (1S,5R,6S)-5-benzyloxy-7-(t-buthoxyiminomethyl)-4-oxa-bicyclo [4.3.0]nona-2,7-dien-2-carboxylate], the “Liver protection effect (GPT, %)” value with liver cells was found to be 64%. Moreover, in the data set with HBV [1] (setting [6]), the EC50 worked out at 30 µM. For the same compound, the “SI (selectivity Index, IC50/ED50)” value in the data set on HBV [1] came to 5.7. In addition, the CC50 at 216 h in data set [2] was found to be 180 µM. Moreover, the mortality in data set [3] (250 mg/kg), in data set [3] (500 mg/kg), in data set [3] (1000 mg/kg) and in data set [3] (2000 mg/kg) was 0% in each case. Besides, the “Number of dead animals/Number of administered animals” value with ICR mouse (250 mg/kg), in the data set on ICR mouse (500 mg/kg), with ICR mouse (1000 mg/kg) and in the data set on ICR mouse (2000 mg/kg) was 0/5 in each case.

In the case of `COC(=O)C1=CO[C@@H](O)[C@@H]2C(CO)=CC[C@H]12` [genipin], in data set [4] (Japanese Patent Laid-open No. 80/164625), the anti-tumor effect entry is given as “effective as an anti-tumor agent”. The in vivo activities entry in data set [4] is “liver-protection, inhibition of biosynthesis of RNA and protein, detoxification as well as antiviral activity”. Besides, in the data set on HBV [5], the HBV replication result was “inhibit the HBV replication”.
